From patent US7419683B2, “Method of inhibiting side effects of pharmaceutical compositions containing amphiphilic vehicles or drug carrier molecules” (United States of America as Represented by the Secretary of …, priority 1998, dated 2008)

Experiments:
[1] = test system: liposome-induced pulmonary hypertension; assay: Inhibition of liposome-induced pulmonary hypertension (PAP) in pigs; assay type: in vivo, pig
Experimental: FIG. 12. The effects of complement inhibitors and indomethacin on liposome-induced pulmonary hypertension. Panel A presents the standard liposome-induced changes in PAP before and at different times after the administration of the indicated inhibitors, each in a different animal. […] Inhibitors were injected in the jugular vein in 4-8 mL PBS, at the following doses: GS1, 1.6 mg/kg (squares), sCR1, 0.2 mg/kg (open circles) and 2 mg/kg (closed circles); indomethacin, 5 mg/kg (triangles).
Experiments were-performed in accordance with the guidelines of the Committee on Animal Care of the Uniformed Services University of the Health Sciences and with the Guide for the Care and the Use of Laboratory Animals (Department of Health and Human Services, Publication No. [NIH] 86-23). Female Yorkshire swine (32-48 kg) were sedated with i.m. ketamine and anesthetized with halothane by nose cone. The trachea was intubated and anesthesia was maintained with halothane (1%). […] Systemic vascular resistance (SVR) and pulmonary vascular resistance (PVR) were calculated from SAP, PAP, CO, CVP and LVEDP, using standard formulas (Fontana, J. L. et al., 1995, Anesth. Analg. 80, 219) Blood pressure values and leads II and V5 of the electrocardiogram (ECG) were obtained continually.

miniature pigs = details: previous study; cited from earlier work
SC5b-9 = assay: In vitro complement activation in human serum, SC5b-9 ELISA; assay type: biochemical; details: for C activation (serum SC5b-9), result in words: human sera, Table 1
Experimental: Non-anticoagulated blood was drawn from healthy volunteers and from cancer patients according to protocols approved, as additions to existing protocols, by the Walter Reed Army Medical Center Human Use Committee, and by the University of Southern California (USC)/Norris Cancer Center Institutional Review Board and General Clinical Research Center. […] Blood was allowed to clot at room temperature and the serum was stored at −80° C. It was thawed and kept at 4° C. before incubation with the test agents.
To assess C activation in vitro we measured the drug-induced rise of two C split products, SC5b-9 and Bb, using ELISA kits from Quidel Corp. (San Diego, Calif.). SC5b-9 is the soluble, S-protein-bound form of the terminal complex, a sensitive measure of C5a formation through both the classical and the alternative pathways, while Bb is the proteolytically active fragment of factor B, a specific marker of C activation through the alternative pathway. The test agents were incubated with the serum in a shaking water bath (80 rpm cycle) for 30 to 60 min at 37° C. at an activator to serum volume ratio of 1:5 or 1:10. […] The reaction was stopped by adding 20 volume of the specimen diluent from the ELISA kits containing PBS, 0.05% Tween-20, protein stabilizers, and 0.01% Thimerosal.

[2] = test system: Cremophor EL-induced complement activation; assay: Inhibition of Cremophor EL-induced complement activation (SC5b-9) in human serum; assay type: biochemical; details: Cremophor EL 8.8 mg/ml, serum of a healthy subject
Experimental: FIG. 4. Inhibition of Cremophor EL-induced complement activation by soluble complement receptor type 1 (sCR1): dose activity relationship. […] Serum levels of SC5b-9 were measured by enzyme-linked immunoasorbent assay, as described. Bars=mean values with 95% confidence interval, obtained from triplicate wells. The rise of SC5b-9 relative to PBS was statistically significant at *, P=0.0006 and **, P=0.002 (Student's two-sample t test, two-tailed).
To assess C activation in vitro we measured the drug-induced rise of two C split products, SC5b-9 and Bb, using ELISA kits from Quidel Corp. (San Diego, Calif.). SC5b-9 is the soluble, S-protein-bound form of the terminal complex, a sensitive measure of C5a formation through both the classical and the alternative pathways, while Bb is the proteolytically active fragment of factor B, a specific marker of C activation through the alternative pathway. The test agents were incubated with the serum in a shaking water bath (80 rpm cycle) for 30 to 60 min at 37° C. at an activator to serum volume ratio of 1:5 or 1:10. Typically, 5 μl of drug (stock) was added to 45 μl of serum placed in Eppendorf tubes. The reaction was stopped by adding 20 volume of the specimen diluent from the ELISA kits containing PBS, 0.05% Tween-20, protein stabilizers, and 0.01% Thimerosal.

[3] = pigs; cited from earlier work
[4] = test system: LEH-induced complement activation; details: human serum, in vitro, cited from earlier work
[5] = test system: C-mediated harmful effects; details: in vitro; cited from earlier work

## COc1ccc2c(c1)c(CC(=O)O)c(C)n2C(=O)c1ccc(Cl)cc1 [indomethacin]
[1]; 5 mg/kg i.v., all tested pigs
  effect on pulmonary reaction to 5 mg liposome boluses: completely suppressed
Miniature pigs
  rise of PVR after liposomes with indomethacin treatment: 20%

## CCO [ethanol]
SC5b-9
  C activation (serum SC5b-9), result in words: did not cause significant elevation of serum SC5b-9
SC5b-9; subject 2 (healthy donor), dose 0.8% (final serum concentration)
  SC5b-9: 3.2 µg/mL
SC5b-9; subject 3 (healthy donor), dose 0.4% (final serum concentration)
  SC5b-9: 0.5 µg/mL
SC5b-9; subject 4 (cancer patient), dose 0.8% (final serum concentration)
  SC5b-9: 6.6 µg/mL

## N.N.O=C([O-])C1(C(=O)[O-])CCC1.[Pt+2] [carboplatin]
SC5b-9
  C activation (serum SC5b-9), result in words: did not cause C activation
SC5b-9; subject 2 (healthy donor), dose 100 μg/ml, no ethanol
  SC5b-9: 3.4 µg/mL
SC5b-9; subject 4 (cancer patient), dose 100 μg/ml, no ethanol
  SC5b-9: 5.5 µg/mL

## CC(=O)O[C@H]1C(=O)[C@@]2(C)[C@H]([C@H](OC(=O)c3ccccc3)[C@]3(O)C[C@H](OC(=O)[C@H](O)[C@@H](NC(=O)c4ccccc4)c4ccccc4)C(C)=C1C3(C)C)[C@]1(OC(C)=O)CO[C@@H]1C[C@@H]2O [Paclitaxel, paclitaxel]
SC5b-9; paclitaxel 100 ug/mL, bar marked * in FIG. 2 (with 95% confidence interval)
  SC5b-9: 67.4 (65.8-69) ug/ml

## CC(=O)O[C@@]12CO[C@@H]1C[C@H](O)[C@@]1(C)C(=O)[C@H](O)C3=C(C)[C@@H](OC(=O)[C@H](O)[C@@H](NC(=O)OC(C)(C)C)c4ccccc4)C[C@@](O)([C@@H](OC(=O)c4ccccc4)[C@H]21)C3(C)C [docetaxel]
SC5b-9
  C activation (serum SC5b-9), result in words: caused C activation only when the drug (formulated in Tween-80) was added to human serum together with ethanol
SC5b-9; subject 1 (healthy donor), dose 100 μg/ml (H2O), 30 min 37° C.
  SC5b-9: 1.8 µg/mL
SC5b-9; subject 1 (healthy donor), dose 100 μg/ml with 0.8% ethanol, 30 min 37° C.
  SC5b-9: 16.0 µg/mL
SC5b-9; subject 2 (healthy donor), dose 100 μg/ml with 0.8% ethanol
  SC5b-9: 28.6 µg/mL
SC5b-9; subject 3 (healthy donor), dose 100 μg/ml (H2O)
  SC5b-9: 0.2 µg/mL
SC5b-9; subject 4 (cancer patient), dose 100 μg/ml with 0.8% ethanol
  SC5b-9: 38.5 µg/mL

## sCR1: Recombinant soluble complement receptor type 1
[2]
  dose providing complete suppression of Cremophor EL/ethanol-induced increase of SC5b-9: 1.8 µg/mL
  doses significantly inhibiting Cremophor EL/ethanol-induced increase of SC5b-9: > 0.6 µg/mL
[1]; 0.2 and 2 mg/kg i.v. (in 2-2 pigs), maximal inhibition
  inhibition of PAP response to 5 mg liposome boluses: 30-100%
[3]
  plasma clearance α-phase t1/2: 8.3 min
  plasma clearance β-phase t1/2: 6.05 h
  share of the drug clearing slowly: 31%
[4]; LEH-induced
  dose providing complete suppression of SC5b-9 formation: 20 µg/mL
[4]
  doses significantly inhibiting LEH-induced complement activation: > 0.8 µg/mL
[5]
  concentration range of potent inhibition of C-mediated harmful effects: 10 to 40 µg/mL
